The values that follow are results of earlier work, collected in patent publication US5292505A, “Sulphated vinyl polymer in composition for treating retroviral infections” (Stichting Rega VZW, priority 1989, dated 1994).

For data set [1], the system named is Molt-4 cells co-cultured with HIV-1-infected HUT-78 cells. The note with it: statement without own test.
Data set [2] deals with AIDS. The note with it: AIDS patients, Fischl et al.

As for `Cc1cn([C@H]2C[C@H](N=[N+]=[N-])[C@@H](CO)O2)c(=O)[nH]c1=O` [azidothymidine, 3'-azido-2',3'-dideoxythymidine], the “inhibition of giant cell formation” value in data set [1] is listed as “does not show such effect”. In addition, the clinical effectiveness entry in data set [2] was “clinically effective”.
